Reference: ChEMBL document CHEMBL3885861, “Open TG-GATES”

Organism: Rattus norvegicus
Experiment: Open TG-GATES - Regimen: Single
Type: toxicity, organism-based, Sprague-Dawley
Design: regimen Single, gender Male, age 6 weeks
Conditions: in vivo, po, 0 mg/kg, route gavage, dose level Control; for APTT / Bas / Eos / Fbg / Hb / Ht / Lym / MCH / MCHC / MCV / Mono / Neu / PT / Plat / RBC / Ret / WBC: tissue Blood; for KIDNEY_L / KIDNEY_R / KIDNEY_TOTAL: tissue Kidney; for LIVER: tissue Liver; for A/G / ALP / ALT / AST / BUN / CRE / Ca / Cl / DBIL / GLC / IP / K / LDH / Na / PL / RALB / TBIL / TC / TG / TP / gamma-GTP: tissue Plasma

Molecule CC(=O)[C@@]1(O)CC[C@H]2[C@@H]3C=C(Cl)C4=CC(=O)CC[C@]4(C)[C@H]3CC[C@@]21C [CHLORMADINONE] has a TERMINAL_BW (3 h) of 219.1 g, an APTT (3 h) of 23.2 s and a Bas (3 h) of 0%. It also gave an Eos (3 h) of 0.6%, a Fbg (3 h) of 294.4 mg/dL and a Hb (3 h) of 13.3 g/dL. The Ht (3 h) was 41%, the Lym (3 h) was 83.4% and the MCH (3 h) was 20.4 pg. For the same molecule, the MCHC (3 h) was 32.3%, the MCV (3 h) was 63.1 fL and the Mono (3 h) was 2.2%. The Neu (3 h) was 13.2%, the PT (3 h) was 15.5 s and the Plat (3 h) was 111.7 x10_4/uL. The RBC (3 h) was 650.2 x10_4/ul, the Ret (3 h) was 8% and the WBC (3 h) was 78.7 x10_2/uL. It also gave a KIDNEY_L (3 h) of 1 g, a KIDNEY_R (3 h) of 1 g and a KIDNEY_TOTAL (3 h) of 2 g. The LIVER (3 h) was 10 g, the A/G (3 h) was 1.2 and the ALP (3 h) was 1607 IU/L. The ALT (3 h) was 42 IU/L, the AST (3 h) was 77.8 IU/L and the BUN (3 h) was 13.4 mg/dL. For the same molecule, the CRE (3 h) was 0.2 mg/dL, the Ca (3 h) was 10.8 mg/dL and the Cl (3 h) was 105.2 meq/L. It also gave a DBIL (3 h) of 0 mg/dL, a GLC (3 h) of 180 mg/dL and an IP (3 h) of 8.1 mg/dL. For the same molecule, the K (3 h) was 4.3 meq/L, the LDH (3 h) was 163.6 IU/L and the Na (3 h) was 142.2 meq/L. It also gave a PL (3 h) of 130.6 mg/dL, an RALB (3 h) of 3 g/dL and a TBIL (3 h) of 0.02 mg/dL. For the same molecule, the TC (3 h) was 71.8 mg/dL, the TG (3 h) was 63.4 mg/dL and the TP (3 h) was 5.4 g/dL. For the same molecule, the gamma-GTP (3 h) was 1.8 IU/L, the TERMINAL_BW (6 h) was 216.7 g and the APTT (6 h) was 23.8 s. For the same molecule, the Bas (6 h) was 0%, the Eos (6 h) was 0.6% and the Fbg (6 h) was 293.2 mg/dL. For the same molecule, the Hb (6 h) was 13.3 g/dL, the Ht (6 h) was 41.1% and the Lym (6 h) was 80.6%. It also gave an MCH (6 h) of 20.6 pg, an MCHC (6 h) of 32.3% and an MCV (6 h) of 63.8 fL. The Mono (6 h) was 2.8%, the Neu (6 h) was 15.4% and the PT (6 h) was 16.1 s. For the same molecule, the Plat (6 h) was 112 x10_4/uL, the RBC (6 h) was 643.6 x10_4/ul and the Ret (6 h) was 7.8%. For the same molecule, the WBC (6 h) was 116.8 x10_2/uL, the KIDNEY_L (6 h) was 0.9 g and the KIDNEY_R (6 h) was 1 g. For the same molecule, the KIDNEY_TOTAL (6 h) was 2 g, the LIVER (6 h) was 9.2 g and the A/G (6 h) was 1.2. It also gave an ALP (6 h) of 1313.8 IU/L, an ALT (6 h) of 40.8 IU/L and an AST (6 h) of 74.6 IU/L. For the same molecule, the BUN (6 h) was 12.8 mg/dL, the CRE (6 h) was 0.1 mg/dL and the Ca (6 h) was 10.5 mg/dL. For the same molecule, the Cl (6 h) was 105.4 meq/L, the DBIL (6 h) was 0 mg/dL and the GLC (6 h) was 190.8 mg/dL. For the same molecule, the IP (6 h) was 9.3 mg/dL, the K (6 h) was 4.4 meq/L and the LDH (6 h) was 174.8 IU/L. The Na (6 h) was 141.2 meq/L, the PL (6 h) was 132.6 mg/dL and the RALB (6 h) was 2.9 g/dL. For the same molecule, the TBIL (6 h) was 0.022 mg/dL, the TC (6 h) was 73.2 mg/dL and the TG (6 h) was 48.6 mg/dL. It also gave a TP (6 h) of 5.3 g/dL, a gamma-GTP (6 h) of 1.2 IU/L and a TERMINAL_BW (9 h) of 217.4 g. It also gave an APTT (9 h) of 23.3 s, a Bas (9 h) of 0% and an Eos (9 h) of 0.8%. The Fbg (9 h) was 309.2 mg/dL, the Hb (9 h) was 12.9 g/dL and the Ht (9 h) was 39.8%. It also gave a Lym (9 h) of 80%, an MCH (9 h) of 20.5 pg and an MCHC (9 h) of 32.3%. The MCV (9 h) was 63.4 fL, the Mono (9 h) was 2.6% and the Neu (9 h) was 15.8%. It also gave a PT (9 h) of 15.6 s, a Plat (9 h) of 123.4 x10_4/uL and an RBC (9 h) of 628 x10_4/ul. It also gave a Ret (9 h) of 8.2%, a WBC (9 h) of 100.7 x10_2/uL and a KIDNEY_L (9 h) of 1 g. It also gave a KIDNEY_R (9 h) of 1 g, a KIDNEY_TOTAL (9 h) of 2 g and an LIVER (9 h) of 9.4 g. The A/G (9 h) was 1.3, the ALP (9 h) was 1276.4 IU/L and the ALT (9 h) was 36.8 IU/L. For the same molecule, the AST (9 h) was 70.2 IU/L, the BUN (9 h) was 13.6 mg/dL and the CRE (9 h) was 0.2 mg/dL. For the same molecule, the Ca (9 h) was 10.5 mg/dL, the Cl (9 h) was 104.8 meq/L and the DBIL (9 h) was 0 mg/dL. The GLC (9 h) was 202.6 mg/dL, the IP (9 h) was 9.6 mg/dL and the K (9 h) was 4.1 meq/L. For the same molecule, the LDH (9 h) was 170 IU/L, the Na (9 h) was 141.2 meq/L and the PL (9 h) was 128.4 mg/dL. For the same molecule, the RALB (9 h) was 3 g/dL, the TBIL (9 h) was 0.02 mg/dL and the TC (9 h) was 70.4 mg/dL. It also gave a TG (9 h) of 69.8 mg/dL, a TP (9 h) of 5.3 g/dL and a gamma-GTP (9 h) of 1.6 IU/L. It also gave a TERMINAL_BW (24 h) of 233 g, an APTT (24 h) of 23.5 s and a Bas (24 h) of 0%. For the same molecule, the Eos (24 h) was 0.8%, the Fbg (24 h) was 308.8 mg/dL and the Hb (24 h) was 13.3 g/dL. For the same molecule, the Ht (24 h) was 40.9%, the Lym (24 h) was 82.8% and the MCH (24 h) was 20.5 pg. For the same molecule, the MCHC (24 h) was 32.5%, the MCV (24 h) was 63.1 fL and the Mono (24 h) was 2.2%. The Neu (24 h) was 13.4%, the PT (24 h) was 15.9 s and the Plat (24 h) was 115.3 x10_4/uL. It also gave an RBC (24 h) of 649.2 x10_4/ul, a Ret (24 h) of 7.8% and a WBC (24 h) of 120.1 x10_2/uL. The KIDNEY_L (24 h) was 1 g, the KIDNEY_R (24 h) was 1 g and the KIDNEY_TOTAL (24 h) was 2 g. The LIVER (24 h) was 11 g, the A/G (24 h) was 1.2 and the ALP (24 h) was 1565 IU/L. The ALT (24 h) was 45.4 IU/L, the AST (24 h) was 73.6 IU/L and the BUN (24 h) was 17.8 mg/dL. For the same molecule, the CRE (24 h) was 0.2 mg/dL, the Ca (24 h) was 10.9 mg/dL and the Cl (24 h) was 105.4 meq/L. It also gave a DBIL (24 h) of 0 mg/dL, a GLC (24 h) of 197.8 mg/dL and an IP (24 h) of 7.3 mg/dL. It also gave a K (24 h) of 4.7 meq/L, an LDH (24 h) of 219 IU/L and a Na (24 h) of 140.6 meq/L. The PL (24 h) was 166 mg/dL, the RALB (24 h) was 3 g/dL and the TBIL (24 h) was 0.01 mg/dL. The TC (24 h) was 85 mg/dL, the TG (24 h) was 115 mg/dL and the TP (24 h) was 5.5 g/dL. It also gave a gamma-GTP (24 h) of 1 IU/L.
